Measurements reported in the NIST ThermoML archive (doi:10.1021/je700260f).

Conditions: Liquid, Vibrating tube method

FC(C(F)(F)F)C(F)(F)F [1,1,1,2,3,3,3-heptafluoropropane]
Conditions | mass density [kg/m3]
333.16 K, 17241 kPa | 1375.9
333.16 K, 17263 kPa | 1376.1
333.16 K, 17300 kPa | 1376.3
333.16 K, 17322 kPa | 1376.4
333.16 K, 17351 kPa | 1376.5
333.16 K, 17370 kPa | 1376.8
333.16 K, 17482 kPa | 1377.4
333.16 K, 17509 kPa | 1377.4
333.16 K, 17532 kPa | 1377.7
333.16 K, 17563 kPa | 1377.9
333.16 K, 17589 kPa | 1378
333.16 K, 17619 kPa | 1378.1
333.16 K, 17654 kPa | 1378.4
333.16 K, 17680 kPa | 1378.6
333.16 K, 17707 kPa | 1378.7
333.16 K, 17741 kPa | 1378.9
333.16 K, 17766 kPa | 1379.1
333.16 K, 17788 kPa | 1379.2
333.16 K, 17814 kPa | 1379.3
333.16 K, 17848 kPa | 1379.5
333.16 K, 17875 kPa | 1379.6
333.16 K, 18144 kPa | 1381.2
333.16 K, 18172 kPa | 1381.4
333.16 K, 18199 kPa | 1381.6
333.16 K, 18229 kPa | 1381.8
333.16 K, 18263 kPa | 1382
333.16 K, 18289 kPa | 1382
333.16 K, 18321 kPa | 1382.2
333.16 K, 18352 kPa | 1382.4
333.16 K, 18378 kPa | 1382.7
333.16 K, 18409 kPa | 1382.9
333.16 K, 18440 kPa | 1382.9
333.16 K, 18582 kPa | 1383.6
333.16 K, 18605 kPa | 1383.8
333.16 K, 18633 kPa | 1384.2
333.16 K, 18653 kPa | 1384.2
333.16 K, 18684 kPa | 1384.3
333.16 K, 18715 kPa | 1384.6
333.16 K, 18741 kPa | 1384.6
333.16 K, 18777 kPa | 1384.9
333.16 K, 18809 kPa | 1385.1
333.16 K, 18836 kPa | 1385.3
333.16 K, 18859 kPa | 1385.4
333.16 K, 18889 kPa | 1385.6
333.16 K, 18924 kPa | 1385.8
333.16 K, 18951 kPa | 1385.8
333.16 K, 18974 kPa | 1385.9
333.16 K, 19009 kPa | 1386.3
333.16 K, 19047 kPa | 1386.4
333.16 K, 19071 kPa | 1386.6
333.16 K, 19105 kPa | 1386.7
333.16 K, 19128 kPa | 1386.7
333.16 K, 19166 kPa | 1387
333.16 K, 19192 kPa | 1387.1
333.16 K, 19220 kPa | 1387.4
333.16 K, 19248 kPa | 1387.5
333.16 K, 19286 kPa | 1387.9
333.16 K, 19310 kPa | 1387.8
333.16 K, 19346 kPa | 1388
333.16 K, 19381 kPa | 1388.3
333.16 K, 19409 kPa | 1388.4
333.16 K, 19445 kPa | 1388.6
333.16 K, 19468 kPa | 1388.8
333.16 K, 19716 kPa | 1390.1
333.16 K, 19745 kPa | 1390.3
333.16 K, 19776 kPa | 1390.5
333.16 K, 19803 kPa | 1390.5
333.16 K, 19831 kPa | 1390.7
333.16 K, 19870 kPa | 1391
333.16 K, 19894 kPa | 1391
333.16 K, 19927 kPa | 1391.2
333.16 K, 19959 kPa | 1391.4
333.16 K, 19987 kPa | 1391.6
333.16 K, 20022 kPa | 1391.8
333.16 K, 20050 kPa | 1391.9
333.16 K, 20077 kPa | 1392
333.16 K, 20115 kPa | 1392.3
333.16 K, 20146 kPa | 1392.4
333.16 K, 20174 kPa | 1392.5
333.16 K, 20207 kPa | 1392.8
333.16 K, 20238 kPa | 1392.9
333.16 K, 20266 kPa | 1393.1
333.16 K, 20294 kPa | 1393.3
333.16 K, 20328 kPa | 1393.5
333.16 K, 20352 kPa | 1393.5
333.16 K, 20393 kPa | 1393.9
333.16 K, 20421 kPa | 1393.8
333.16 K, 20453 kPa | 1394.1
333.16 K, 20487 kPa | 1394.3
333.16 K, 20512 kPa | 1394.4
333.16 K, 20545 kPa | 1394.6
333.16 K, 20579 kPa | 1394.8
333.16 K, 20612 kPa | 1395
333.16 K, 20640 kPa | 1395.1
333.16 K, 20661 kPa | 1395.4
333.16 K, 20682 kPa | 1395.2
333.16 K, 20713 kPa | 1395.4
333.16 K, 21425 kPa | 1399.3
333.16 K, 21458 kPa | 1399.4
333.16 K, 21479 kPa | 1399.5
333.16 K, 21507 kPa | 1399.6
333.16 K, 21537 kPa | 1399.9
333.16 K, 21562 kPa | 1399.9
333.16 K, 21595 kPa | 1400.1
333.16 K, 21615 kPa | 1400.2
333.16 K, 21797 kPa | 1401.1
333.16 K, 21860 kPa | 1401.5
333.16 K, 21957 kPa | 1401.9
333.16 K, 21990 kPa | 1402
333.16 K, 22016 kPa | 1402.3
333.16 K, 22042 kPa | 1402.3
333.16 K, 22082 kPa | 1402.5
333.16 K, 22116 kPa | 1402.8
333.16 K, 22154 kPa | 1402.9
333.16 K, 22183 kPa | 1403.1
333.16 K, 22220 kPa | 1403.2
333.16 K, 22249 kPa | 1403.6
333.16 K, 22279 kPa | 1403.5
333.16 K, 22309 kPa | 1403.8
333.16 K, 22335 kPa | 1403.8
333.16 K, 22370 kPa | 1404.1
333.16 K, 22404 kPa | 1404.2
333.16 K, 22435 kPa | 1404.3
333.16 K, 22473 kPa | 1404.6
333.16 K, 22511 kPa | 1404.8
333.16 K, 22537 kPa | 1404.9
333.16 K, 22575 kPa | 1405.2
333.16 K, 22605 kPa | 1405.3
333.16 K, 22642 kPa | 1405.4
333.16 K, 22672 kPa | 1405.6
333.16 K, 22698 kPa | 1405.8
333.16 K, 22736 kPa | 1405.9
333.16 K, 22762 kPa | 1406.1
333.16 K, 22980 kPa | 1407.1
333.16 K, 23011 kPa | 1407.2
333.16 K, 23037 kPa | 1407.4
333.16 K, 23068 kPa | 1407.5
333.16 K, 23104 kPa | 1407.9
333.16 K, 23133 kPa | 1407.8
333.16 K, 23162 kPa | 1408
333.16 K, 23193 kPa | 1408.1
333.16 K, 23228 kPa | 1408.3
333.16 K, 23254 kPa | 1408.5
333.16 K, 23297 kPa | 1408.8
333.16 K, 23324 kPa | 1408.8
333.16 K, 23358 kPa | 1409
333.16 K, 23425 kPa | 1409.3
333.16 K, 23453 kPa | 1409.5
333.16 K, 23480 kPa | 1409.5
333.16 K, 23515 kPa | 1409.6
333.16 K, 23559 kPa | 1410
333.16 K, 23594 kPa | 1410.2
333.16 K, 23633 kPa | 1410.3
333.16 K, 23662 kPa | 1410.4
333.16 K, 23693 kPa | 1410.4
333.16 K, 23728 kPa | 1410.8
333.16 K, 23763 kPa | 1411
333.16 K, 23795 kPa | 1411
333.16 K, 23823 kPa | 1411.3
333.16 K, 23890 kPa | 1411.6
333.16 K, 23921 kPa | 1411.7
333.16 K, 23957 kPa | 1411.9
333.16 K, 23993 kPa | 1412
333.16 K, 24020 kPa | 1412.2
333.16 K, 24055 kPa | 1412.4
333.16 K, 24089 kPa | 1412.4
333.16 K, 24110 kPa | 1412.7
333.16 K, 24140 kPa | 1412.7
333.16 K, 24184 kPa | 1413
333.16 K, 24206 kPa | 1413.1
333.16 K, 24242 kPa | 1413.2
333.16 K, 24269 kPa | 1413.3
333.16 K, 24304 kPa | 1413.6
333.16 K, 24333 kPa | 1413.8
333.16 K, 24369 kPa | 1413.7
333.16 K, 24396 kPa | 1414
333.16 K, 24436 kPa | 1414.2
333.16 K, 24468 kPa | 1414.3
333.16 K, 24500 kPa | 1414.4
333.16 K, 24531 kPa | 1414.6
333.16 K, 24558 kPa | 1414.7
333.16 K, 24594 kPa | 1414.9
333.16 K, 24621 kPa | 1415.1
333.16 K, 24657 kPa | 1415.2
333.16 K, 24688 kPa | 1415.3
333.16 K, 24720 kPa | 1415.5
333.16 K, 24751 kPa | 1415.7
333.16 K, 24782 kPa | 1415.8
333.16 K, 24810 kPa | 1415.9
333.16 K, 24838 kPa | 1416
333.16 K, 24869 kPa | 1416
333.16 K, 24910 kPa | 1416.4
333.16 K, 24944 kPa | 1416.5
333.16 K, 24980 kPa | 1416.7
333.16 K, 25007 kPa | 1416.8
333.16 K, 25039 kPa | 1417.1
333.16 K, 25088 kPa | 1417.1
333.16 K, 25111 kPa | 1417.2
333.17 K, 17403 kPa | 1376.8
333.17 K, 17429 kPa | 1376.9
333.17 K, 17457 kPa | 1377.4
333.17 K, 18467 kPa | 1383.1
333.17 K, 18490 kPa | 1383
333.17 K, 18517 kPa | 1383.4
333.17 K, 18552 kPa | 1383.6
333.17 K, 23382 kPa | 1409
